# In patent US10233173B2, “Substituted 1,2,3-triazoles as NR2B-selective NMDA modulators” (JANSSEN PHARMACEUTICA NV, priority 2016, dated 2019):
# Target: human GluN1/GluN2B NMDA receptors (Homo sapiens, UniProt Q05586+Q13224)
# Test: Cell-based calcium flux (FLIPR) assay on cloned human NR1/NR2B ion channels expressed in mammalian cells
# Details: standard assay; glutamate at ~EC80; FLIPR calcium flux
# Procedure, shortened: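 Calcium influx followed by FLIPR fluorescence after 5 min compound exposure and a further 5 min co-agonist challenge: 10 μM glycine with glutamate at ~EC80 (standard) or EC40 (HTS).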
# Chain of human GluN1/GluN2B NMDA receptors (Q13224 27-1484, other chains not shown): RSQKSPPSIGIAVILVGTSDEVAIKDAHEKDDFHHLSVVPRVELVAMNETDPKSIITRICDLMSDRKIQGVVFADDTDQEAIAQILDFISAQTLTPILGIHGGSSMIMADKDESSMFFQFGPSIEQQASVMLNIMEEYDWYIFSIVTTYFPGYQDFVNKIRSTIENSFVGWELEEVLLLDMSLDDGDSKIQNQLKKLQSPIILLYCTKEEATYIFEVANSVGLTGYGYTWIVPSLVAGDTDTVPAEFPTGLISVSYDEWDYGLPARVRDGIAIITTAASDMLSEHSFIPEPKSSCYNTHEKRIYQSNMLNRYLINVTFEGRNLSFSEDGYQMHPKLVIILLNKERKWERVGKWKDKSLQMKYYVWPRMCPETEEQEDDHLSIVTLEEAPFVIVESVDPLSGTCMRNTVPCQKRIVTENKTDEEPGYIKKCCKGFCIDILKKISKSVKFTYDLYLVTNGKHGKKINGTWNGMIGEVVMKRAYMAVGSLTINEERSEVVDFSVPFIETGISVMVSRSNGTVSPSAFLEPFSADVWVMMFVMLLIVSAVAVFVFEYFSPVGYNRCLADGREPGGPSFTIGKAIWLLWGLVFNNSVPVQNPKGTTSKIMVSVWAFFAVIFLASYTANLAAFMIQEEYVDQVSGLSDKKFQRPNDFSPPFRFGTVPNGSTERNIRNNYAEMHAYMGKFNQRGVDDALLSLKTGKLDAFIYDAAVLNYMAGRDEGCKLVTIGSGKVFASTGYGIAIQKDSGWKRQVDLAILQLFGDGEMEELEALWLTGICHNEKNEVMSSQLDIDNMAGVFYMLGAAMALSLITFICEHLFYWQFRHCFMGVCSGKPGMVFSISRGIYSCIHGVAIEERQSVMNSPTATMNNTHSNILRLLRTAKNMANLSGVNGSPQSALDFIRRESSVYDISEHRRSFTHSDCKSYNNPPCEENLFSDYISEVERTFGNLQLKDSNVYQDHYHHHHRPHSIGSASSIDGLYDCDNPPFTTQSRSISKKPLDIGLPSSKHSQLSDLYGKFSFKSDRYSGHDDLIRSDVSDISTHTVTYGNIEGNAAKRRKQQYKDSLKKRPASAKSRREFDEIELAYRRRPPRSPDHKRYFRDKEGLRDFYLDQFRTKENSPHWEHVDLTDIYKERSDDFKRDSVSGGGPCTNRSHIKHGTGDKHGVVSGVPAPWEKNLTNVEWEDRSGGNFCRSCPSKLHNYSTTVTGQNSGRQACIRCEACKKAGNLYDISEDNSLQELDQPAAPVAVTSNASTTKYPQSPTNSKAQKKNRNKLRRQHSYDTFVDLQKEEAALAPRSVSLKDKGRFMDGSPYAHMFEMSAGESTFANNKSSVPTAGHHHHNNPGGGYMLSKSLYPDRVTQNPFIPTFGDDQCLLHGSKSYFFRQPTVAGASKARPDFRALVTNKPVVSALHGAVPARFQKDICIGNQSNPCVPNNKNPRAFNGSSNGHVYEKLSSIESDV
row,Compound,IC50
1,"FC1CN(c2cnc(OCc3cn(-c4ccc(Cl)c(OC(F)F)c4)nn3)nc2)C1 [Example 392, 2-((1-(4-Chloro-3-(difluoromethoxy)phenyl)-1H-1,2,3-triazol-4-yl)methoxy)-5-(3-fluoroazetidin-1-yl)pyrimidine]",0.017 µM
2,"FC(F)Oc1cc(-n2cc(COc3ncc(N4CC(F)(F)C4)cn3)nn2)ccc1Cl [Example 393, 2-((1-(4-Chloro-3-(difluoromethoxy)phenyl)-1H-1,2,3-triazol-4-yl)methoxy)-5-(3,3-difluoroazetidin-1-yl)pyrimidine]",0.037 µM
3,"Fc1cccc(OCc2cn(-c3ccc(Cl)c(OC(F)F)c3)nn2)n1 [Example 394, 2-[[1-[4-Chloro-3-(difluoromethoxy)phenyl]triazol-4-yl]methoxy]-6-fluoro-pyridine]",0.437 µM
4,"Fc1ccc(-n2cc(COc3cccc(C(F)(F)F)n3)nn2)cc1OC(F)F [Example 395, 2-[[1-[3-(Difluoromethoxy)-4-fluoro-phenyl]triazol-4-yl]methoxy]-6-(trifluoromethyl)pyridine]",0.919 µM
5,"Cc1cnc(OCc2cn(-c3ccc(F)c(OC(F)F)c3)nn2)cn1 [Example 396, 2-[[1-[3-(Difluoromethoxy)-4-fluoro-phenyl]triazol-4-yl]methoxy]-5-methyl-pyrazine]",0.647 µM
6,"Fc1ccc(-n2cc(COc3cnc(-c4cccs4)cn3)nn2)cc1OC(F)F [Example 397, 2-[[1-[3-(Difluoromethoxy)-4-fluoro-phenyl]triazol-4-yl]methoxy]-5-(2-thienyl)pyrazine]",10.7 µM
7,"COCc1ccnc(OCc2cn(-c3ccc(F)c(C(F)F)c3)nn2)n1 [Example 399, 2-[[1-[3-(Difluoromethyl)-4-fluoro-phenyl]triazol-4-yl]methoxy]-4-(methoxymethyl)pyrimidine]",0.023 µM
8,"OCc1ccnc(OCc2cn(-c3ccc(F)c(C(F)F)c3)nn2)n1 [Example 400, [2-[[1-[3-(Difluoromethyl)-4-fluoro-phenyl]triazol-4-yl]methoxy]pyrimidin-4-yl]methanol]",0.036 µM
9,"CC(C)(O)c1cnc(OCc2cn(-c3ccc(F)c(C(F)F)c3)nn2)nc1 [Example 401, 2-[2-[[1-[3-(Difluoromethyl)-4-fluoro-phenyl]triazol-4-yl]methoxy]pyrimidin-5-yl]propan-2-ol]",0.017 µM

# Same assay, conditions: standard assay; human GluN1/GluN2B, calcium flux (FLIPR), glutamate ~EC80
row,Compound,IC50
1,"Cc1cc(C)cc(-n2cc(COc3ncccn3)nn2)c1 [Example 360, 2-[[1-(3,5-Dimethylphenyl)triazol-4-yl]methoxy]pyrimidine]",0.791 µM
2,"Cc1cc(C)cc(-n2cc(COc3ncc(F)cn3)nn2)c1 [Example 361, 2-[[1-(3,5-Dimethylphenyl)triazol-4-yl]methoxy]-5-fluoro-pyrimidine]",0.587 µM
3,"COc1cnc(OCc2cn(-c3cc(C)cc(C)c3)nn2)nc1 [Example 362, 2-[[1-(3,5-Dimethylphenyl)triazol-4-yl]methoxy]-5-methoxy-pyrimidine]",0.032 µM
4,"Cc1cc(C)cc(-n2cc(COc3ncc(Cl)cn3)nn2)c1 [Example 363, 5-Chloro-2-[[1-(3,5-dimethylphenyl)triazol-4-yl]methoxy]pyrimidine]",0.118 µM
5,"Cc1cnc(OCc2cn(-c3cc(C)cc(C)c3)nn2)nc1 [Example 364, 2-[[1-(3,5-Dimethylphenyl)triazol-4-yl]methoxy]-5-methyl-pyrimidine]",0.027 µM
6,"CCc1cnc(OCc2cn(-c3cc(C)cc(C)c3)nn2)nc1 [Example 365, 2-[[1-(3,5-Dimethylphenyl)triazol-4-yl]methoxy]-5-ethyl-pyrimidine]",0.022 µM
7,"Cc1cnc(OCc2cn(-c3ccc4c(c3)CCC4)nn2)nc1 [Example 366, 2-[(1-Indan-5-yltriazol-4-yl)methoxy]-5-methyl-pyrimidine]",0.02 µM
8,"Clc1cnc(OCc2cn(-c3ccc4c(c3)CCC4)nn2)nc1 [Example 367, 5-Chloro-2-[(1-indan-5-yltriazol-4-yl)methoxy]pyrimidine]",0.053 µM
9,"COCc1ccnc(OCc2cn(-c3ccc4c(c3)CCC4)nn2)n1 [Example 368, 2-[(1-Indan-5-yltriazol-4-yl)methoxy]-4-(methoxymethyl)pyrimidine]",0.114 µM
10,"CC(C)(O)c1cnc(OCc2cn(-c3ccc4c(c3)CCC4)nn2)nc1 [Example 369, 2-[2-[(1-Indan-5-yltriazol-4-yl)methoxy]pyrimidin-5-yl]propan-2-ol]",0.175 µM
11,"FC(F)c1ccnc(OCc2cn(-c3ccc4c(c3)CCC4)nn2)n1 [Example 370, 4-(Difluoromethyl)-2-[(1-indan-5-yltriazol-4-yl)methoxy]pyrimidine]",0.397 µM
12,"Cc1nc(OCc2cn(-c3ccc4c(c3)CCC4)nn2)ncc1Cl [Example 371, 5-Chloro-2-[(1-indan-5-yltriazol-4-yl)methoxy]-4-methyl-pyrimidine]",0.039 µM
13,"Cc1cnc(OCc2cn(-c3ccc(Cl)c(OC(F)F)c3)nn2)nc1C [Example 372, 2-[[1-[4-Chloro-3-(difluoromethoxy)phenyl]triazol-4-yl]methoxy]-4,5-dimethyl-pyrimidine]",0.008 µM
14,"CC(C)c1cnc(OCc2cn(-c3ccc(Cl)c(OC(F)F)c3)nn2)nc1 [Example 373, 2-[[1-[4-Chloro-3-(difluoromethoxy)phenyl]triazol-4-yl]methoxy]-5-isopropyl-pyrimidine]",0.01 µM
15,"C[C@@H](Oc1ncccn1)c1cn(-c2ccc(Cl)c(OC(F)F)c2)nn1 [Example 374, 2-[(1R)-1-[1-[4-Chloro-3-(difluoromethoxy)phenyl]triazol-4-yl]ethoxy]pyrimidine]",0.011 µM
16,"C[C@@H](Oc1ncc(Cl)cn1)c1cn(-c2ccc(Cl)c(OC(F)F)c2)nn1 [Example 375, 5-Chloro-2-[(1R)-1-[1-[4-chloro-3-(difluoromethoxy)phenyl]triazol-4-yl]ethoxy]pyrimidine]",0.01 µM

row,Compound,IC50
1,"Cc1cnc(O[C@H](C)c2cn(-c3ccc(Cl)c(OC(F)F)c3)nn2)nc1 [Example 376, 2-[(1R)-1-[1-[4-Chloro-3-(difluoromethoxy)phenyl]triazol-4-yl]ethoxy]-5-methyl-pyrimidine]",0.011 µM
2,"COc1cnc(O[C@H](C)c2cn(-c3ccc(Cl)c(OC(F)F)c3)nn2)nc1 [Example 377, 2-[(1R)-1-[1-[4-Chloro-3-(difluoromethoxy)phenyl]triazol-4-yl]ethoxy]-5-methoxy-pyrimidine]",0.01 µM
3,"C[C@H](Oc1ncccn1)c1cn(-c2ccc(Cl)c(OC(F)F)c2)nn1 [Example 378, 2-[(1S)-1-[1-[4-Chloro-3-(difluoromethoxy)phenyl]triazol-4-yl]ethoxy]pyrimidine]",2.3 µM
4,"C[C@H](Oc1ncc(Cl)cn1)c1cn(-c2ccc(Cl)c(OC(F)F)c2)nn1 [Example 379, 5-Chloro-2-[(1S)-1-[1-[4-chloro-3-(difluoromethoxy)phenyl]triazol-4-yl]ethoxy]pyrimidine]",0.575 µM
5,"Cc1cnc(O[C@@H](C)c2cn(-c3ccc(Cl)c(OC(F)F)c3)nn2)nc1 [Example 380, 2-[(1S)-1-[1-[4-Chloro-3-(difluoromethoxy)phenyl]triazol-4-yl]ethoxy]-5-methyl-pyrimidine]",0.237 µM
6,"COc1cnc(O[C@@H](C)c2cn(-c3ccc(Cl)c(OC(F)F)c3)nn2)nc1 [Example 381, 2-[(1S)-1-[1-[4-Chloro-3-(difluoromethoxy)phenyl]triazol-4-yl]ethoxy]-5-methoxy-pyrimidine]",0.196 µM
7,"Nc1ccnc(OCc2cn(-c3ccc(Cl)c(OC(F)F)c3)nn2)n1 [Example 382, 2-((1-(4-chloro-3-(difluoromethoxy)phenyl)-1H-1,2,3-triazol-4-yl)methoxy)pyrimidin-4-amine]",0.021 µM
8,"OCc1ccnc(OCc2cn(-c3ccc(Cl)c(OC(F)F)c3)nn2)n1 [Example 383, [2-[[1-[4-Chloro-3-(difluoromethoxy)phenyl]triazol-4-yl]methoxy]pyrimidin-4-yl]methanol]",0.008 µM
9,"COCc1ccnc(OCc2cn(-c3ccc(Cl)c(OC(F)F)c3)nn2)n1 [Example 384, 2-[[1-[4-Chloro-3-(difluoromethoxy)phenyl]triazol-4-yl]methoxy]-4-(methoxymethyl)pyrimidine]",0.018 µM
10,"CC(C)(O)c1cnc(OCc2cn(-c3ccc(Cl)c(OC(F)F)c3)nn2)nc1 [Example 385, 2-[2-[[1-[4-Chloro-3-(difluoromethoxy)phenyl]triazol-4-yl]methoxy]pyrimidin-5-yl]propan-2-ol]",0.028 µM
11,"CC(C)Oc1ccnc(OCc2cn(-c3ccc(Cl)c(OC(F)F)c3)nn2)n1 [Example 386, 2-((1-(4-Chloro-3-(difluoromethoxy)phenyl)-1H-1,2,3-triazol-4-yl)methoxy)-4-isopropoxypyrimidine]",0.504 µM
12,"COC(=O)c1ccnc(OCc2cn(-c3ccc(Cl)c(OC(F)F)c3)nn2)n1 [Example 387, Methyl 2-((1-(4-chloro-3-(difluoromethoxy)phenyl)-1H-1,2,3-triazol-4-yl)methoxy)pyrimidine-4-carboxylate]",0.068 µM
13,"Fc1cnc(OCc2cn(-c3ccc(Cl)c(OC(F)F)c3)nn2)nc1NCC(F)F [Example 388, 2-[[1-[4-Chloro-3-(difluoromethoxy)phenyl]triazol-4-yl]methoxy]-N-(2,2-difluoroethyl)-5-fluoro-pyrimidin-4-amine]",0.842 µM
14,"CNc1nc(OCc2cn(-c3ccc(Cl)c(OC(F)F)c3)nn2)ncc1F [Example 389, 2-[[1-[4-Chloro-3-(difluoromethoxy)phenyl]triazol-4-yl]methoxy]-5-fluoro-N-methyl-pyrimidin-4-amine]",0.033 µM
15,"Nc1nc(OCc2cn(-c3ccc(Cl)c(OC(F)F)c3)nn2)ncc1F [Example 390, 2-((1-(4-Chloro-3-(difluoromethoxy)phenyl)-1H-1,2,3-triazol-4-yl)methoxy)-5-fluoropyrimidin-4-amine]",0.006 µM
16,"FC(F)Oc1cc(-n2cc(COc3ncc(N4CCC4)cn3)nn2)ccc1Cl [Example 391, 5-(Azetidin-1-yl)-2-((1-(4-chloro-3-(difluoromethoxy)phenyl)-1H-1,2,3-triazol-4-yl)methoxy)pyrimidine]",0.022 µM
